Experimental findings from patent US20240218017A1, “PEPTIDE AMPHIPHILES WITH MODIFIED DEGRADING SEQUENCES AND METHODS OF USE THEREOF” (UAB RESEARCH FOUNDATION, priority 2022, published 2024) are described below.

This series in a line: Solubility in DI water at 1 wt % (visual observation, FIG. 5). It is filed as physicochemical. As to the method:
PA-C16-GTAGLKKK-YIGSR (SEQ ID NO: 19) and PA-C16-GTAKKKKK-YIGSR (SEQ ID NO:20) were dissolved in DI water at 1 wt %. […] Higher percent transmittance indicates less opaqueness of solution, which corresponds with increased solubility of the peptide amphiphiles in DI water. Thus, PA-C16-GTAGLKKK-YIGSR (SEQ ID NO: 19) and PA-C16-GTAKKKKK-YIGSR (SEQ ID NO:20) are more soluble than unmodified PA-C16-GTAGLIGQ-YIGSR (SEQ ID NO:21).

Peptide text beside a SMILES is read from it. * marks the point of attachment. Palmitoyl = CCCCCCCCCCCCCCCC(=O)*

Consider `CCCCCCCCCCCCCCCC(=O)NCC(=O)N[C@H](C(=O)N[C@@H](C)C(=O)NCC(=O)N[C@@H](CC(C)C)C(=O)N[C@H](C(=O)NCC(=O)N[C@@H](CCC(N)=O)C(=O)N[C@@H](Cc1ccc(O)cc1)C(=O)N[C@H](C(=O)NCC(=O)N[C@@H](CO)C(=O)N[C@@H](CCCNC(=N)N)C(=O)O)[C@@H](C)CC)[C@@H](C)CC)[C@@H](C)O` [PA-C16-GTAGLIGQ-YIGSR, PA-C16-GTAGLIGQ-YIGSR (SEQ ID NO:21), reference compound] (Palmitoyl-GTAGLIGQYIGSR-OH; N-terminus and C-terminus assumed), for which the solubility entry was “insoluble and forms precipitates”.

In the case of `CCCCCCCCCCCCCCCC(=O)NCC(=O)N[C@H](C(=O)N[C@@H](C)C(=O)NCC(=O)N[C@@H](CC(C)C)C(=O)N[C@@H](CCCCN)C(=O)N[C@@H](CCCCN)C(=O)N[C@@H](CCCCN)C(=O)N[C@@H](Cc1ccc(O)cc1)C(=O)N[C@H](C(=O)NCC(=O)N[C@@H](CO)C(=O)N[C@@H](CCCNC(=N)N)C(=O)O)[C@@H](C)CC)[C@@H](C)O` [PA-C16-GTAGLKKK-YIGSR, PA-C16-GTAGLKKK-YIGSR (SEQ ID NO:19)] (Palmitoyl-GTAGLKKKYIGSR-OH; N-terminus and C-terminus assumed), the solubility result is “form homogenous, transparent solutions”.

Turning to `CCCCCCCCCCCCCCCC(=O)NCC(=O)N[C@H](C(=O)N[C@@H](C)C(=O)N[C@@H](CCCCN)C(=O)N[C@@H](CCCCN)C(=O)N[C@@H](CCCCN)C(=O)N[C@@H](CCCCN)C(=O)N[C@@H](CCCCN)C(=O)N[C@@H](Cc1ccc(O)cc1)C(=O)N[C@H](C(=O)NCC(=O)N[C@@H](CO)C(=O)N[C@@H](CCCNC(=N)N)C(=O)O)[C@@H](C)CC)[C@@H](C)O` [PA-C16-GTAKKKKK-YIGSR, PA-C16-GTAKKKKK-YIGSR (SEQ ID NO:20)] (Palmitoyl-GTAKKKKKYIGSR-OH; N-terminus and C-terminus assumed), the solubility entry is given as “form homogenous, transparent solutions”.
